What was measured:
mice [1] = experiment: Light-Dark Box (LDB) test; format: in vivo
Procedure: Light-Dark Box (LDB) test, one of the unconditioned conflict tests, was used to investigate anxiolytic activity for several drugs such as Diazepam, Buspirone, etc (Allikmets et al, 1996; Belzung and Griebel, 2001; Cutler and Aitken, 1991; Leyre et al, 2004). In the present study, anxiolytic effect of azole compounds containing carbamoyl group represented by general structural formula (IX) was investigated on the LDB test in mice.
The animals were treated with compound 30 min prior to testing. The light-dark box consisted of a plexiglas apparatus measuring 45 cm×27 cm×27 cm (L×W×H), and was partitioned into two compartments, one fully opaque (dark compartment made of black plexiglas: 18 cm of total length of apparatus), while the second was lit from the compartment ceiling by a 100 W bulb. A small opening (7×7 cm) in the partition wall allowed free passage between the light and dark compartments.
Animals were placed at the lit compartment first, and the latency for escape into dark was checked and tested in the LDB for 5 min after the first entering into dark box. The animal, which the latency was over 2 min, was excluded from the test. Total time spent in the light compartment was counted. Movement of animal was checked through the TV-CCD camera by an experienced observer blind to the conditions of the experiment. A mouse whose four paws were in the new box was considered as having changed box.

mice [2] = experiment: Forced swimming test (FST); format: in vivo; conditions: 30 min after dosing
Procedure: The “Forced swimming test (FST)” for antidepressant activity was also carried out. The procedure employed in the FST for antidepressant is as follows. The compounds to be tested were dissolved in 30% PEG400 and administered ip and po into animals. 30 min later, the immobility time during post 4 minutes of 6 minutes experiment time was measured.

mice [3] = experiment: Maximal ElectroShock (MES)-induced tonic seizure test; format: in vivo; conditions: for ED50 / responders at 30 mg/kg: Mus musculus; for ED50: read-out: Mice MES ED50 (mpk/peak time); for responders at 30 mg/kg: read-out: Mice MES Protection % (mpk/peak time)
Procedure: The “Maximal ElectroShock (MES)” test is a well-established pharmacological screening method for anticonvulsants against tonic-clonic seizures. The procedure employed in the MES test for anticonvulsants is as follows. The compounds to be tested were dissolved in 30% PEG400 and administered ip and po into animals. After the designated number of hours, maximal electroshock (50 mA, 60 Hz, 0.2 sec) was applied into animals via corneal electrodes using IITC Life Science model 11A Shocker. […] Median efficacy dose (ED50) levels were determined using three different dose levels with at least 8 mice in each group.

mice [4] = experiment: Pentylenetetrazol (PTZ)-induced clonic seizure test; format: in vivo; conditions: for ED50 / responders at 30 mg/kg: Mus musculus; for ED50: sc, read-out: Mice PTZ ED50 (mpk/peak time); for responders at 30 mg/kg: read-out: Mice PTZ Protection % (mpk/peak time)
Procedure: The “Pentylenetetrazol (PTZ)” test for anticonvulsant and antianxiety activity was also carried out.
The procedure employed in the PTZ test is as follows. The compounds to be tested were dissolved in 30% PEG400 and administered ip and po into animals. After the designated number of hours, each animal was injected subcutaneously with 100 mg/kg of PTZ (CD97 dose) and observed for up to 30 minutes for the presence or absence of clonic spasms over 5 seconds. Median efficacy dose (ED50) levels were determined using three different dose levels with 8 mice in each group.

[5] = tested on: TBPS site of GABA-A receptor; experiment: GABA-A receptor (TBPS site) binding assay, [35S]TBPS; conditions: rat brain membranes, 2 nM [35S]TBPS
Procedure: Compounds of the inventions were tested for specific binding to TBPS (t-butyl bicyclophosphorothionate) site, an allosteric modulator site of GABA-A receptor as modified from G. Maksay and M. Simonyi, Eur. J. Pharmacol. 1985, 117(2), 275. and Gee, K. W. et al., J. Pharm. Exp. Ther. 1988, 246, 803.
This binding assay was performed using [35S] TBPS as radioligand in washed crude membrane homogenate from rat brains. Membrane preparations were carried out according to procedure described below. Sprague-Dawley (SD) rat weighting 230 g were killed by decapitation and their whole brains were rapidly removed and its cerebellums were excluded. The dissected brains were homogenized for 30 sec in 10 volumes (W/V) of ice-cold 0.32 M Sucrose and 50 mM Tris-citrate buffer pH 7.4 using glass homogenate. The homogenate was centrifuged at 2,000×g for 5 min at 4° C. And the supernatant re-centrifuged at 50,000×g for 20 min at 4° C. The supernatant was discarded and the resulting pellets were resuspended in 10 volumes (W/V) of ice-cold 50 mM Tris-citrate buffer pH 7.4. And then the suspended pellet was centrifuged at 50,000×g for 20 min at 4° C. The resulting pellets were suspended again in 32 volumes (W/V) of ice-cold 50 mM Tris-citrate buffer pH 7.4 with 0.05% Triton X-100 and then incubated in 37° C. for 60 min using a water bath. The incubated suspension was centrifuged at 50,000×g for 20 min at 4° C. Resuspending and centrifugation step of the remained pellets were repeated twice at the same manner and final pellets were resuspended in 10 volumes (W/V) of ice-cold 50 mM Tris-citrate buffer pH 7.4 to enable distribution of 2 ml aliquot in microcentrifuge tube, which were used immediately or kept at −80° C. for no more than 1 month before use.
For TBPS site binding assay, 50 μl of the tested compound were added to 100 μg membrane protein suspended in 0.15 ml of 50 mM Tris-citrate buffer with 200 mM NaCl pH 7.4 in presence of 2 nM of [35S] TBPS. The incubation of mixtures were carried out for 1.5 hours at 25° C. and then rapidly filtered over Whatman GF/C glass fiber filters, followed by twice 4.5 ml rinses with ice-cold incubation buffer. The filters were placed in counting vials and 4 ml scintillation solution. The vials were counted in a Beckman scintillation counter. Non-specific binding was determined in parallel incubations with 100 μM picrotoxin.
IC50 values for TBPS site binding assay was calculated using Graphpad PRISM v.3.00.

[6] = treated 30 min prior to testing, dose not given
[7] = treated 30 min prior to testing

| Compound | Mice LDB % Duration in the light box (mice [1]; [6]) | Mice FST Reduction of immobility % (mice [2]) | ED50 (mice [3]; 0.5 h) [mg/kg] | Mice FST Reduction of immobility % (mice [2]; dose not given) [%] | TBPS Inhibition % (At 100 μM) [5] [%] | also measured |
| --- | --- | --- | --- | --- | --- | --- |
| NC(=O)OC(Cn1ncnn1)c1ccccc1Cl (centres unmarked) [Example 2, Carbamic acid 1-(2-chloro-phenyl)-2-tetrazol-2-yl-ethyl ester] | 180%^ | N.S | 8.6 |  |  | ED50 (mice [4]; 0.5 h): 5.9 mg/kg |
| NC(=O)O[C@@H](Cn1nccn1)c1ccccc1Cl [Example 33, Carbamic acid (R)-1-(2-chloro-phenyl)-2-[1,2,3]triazol-2-yl-ethyl ester] |  |  | 9.72 | 26.2 |  | Mice LDB % Duration in the light box (mice [1]; [7]): N.S; ED50 (mice [4]; 0.5 h): 8.18 mg/kg |
| CC(C(OC(N)=O)c1ccc(Cl)c(Cl)c1)n1ncnn1 (centres unmarked) [Example 80, Carbamic acid 1-(3,4-dichloro-phenyl)-2-tetrazol-2-yl-propyl ester] |  |  |  | 50.6 | 64.8 | responders at 30 mg/kg (mice [3]; 4 h): 33.3% |
| NC(=O)O[C@@H](Cn1nccn1)c1ccc(Cl)cc1 [Example 86, Carbamic acid (R)-1-(4-chloro-phenyl)-2-[1,2,3]triazol-2-yl-ethyl ester] |  | N.S | 21.4 |  | 18.9 |  |
| NC(=O)O[C@@H](Cn1ncnn1)c1ccc(Cl)c(Cl)c1 [Example 88, Carbamic acid (R)-1-(3,4-dichloro-phenyl)-2-tetrazol-2-yl-ethyl ester] |  |  | 19.1 | 88.4 | 52.8 |  |
| NC(=O)OC(Cn1ncnn1)c1cc(Cl)ccc1Cl (centres unmarked) [Example 89, Carbamic acid 1-(2,5-dichloro-phenyl)-2-tetrazol-2-yl-ethyl ester] | 167.4% ^ | N.S |  |  | 27.6 | ED50 (mice [3]; 1 h): 6.15 mg/kg; ED50 (mice [4]; 1 h): 14.5 mg/kg |
| NC(=O)OC(Cn1ncnn1)c1c(Cl)cccc1Cl (centres unmarked) [Example 98, Carbamic acid 1-(2,6-dichloro-phenyl)-2-tetrazol-2-yl-ethyl ester] |  |  | 6.03 | 31.5 | 29.9 | ED50 (mice [4]; 0.5 h): 11.6 mg/kg |
| NC(=O)OC(Cn1nccn1)c1c(Cl)cccc1Cl (centres unmarked) [Example 99, Carbamic acid 1-(2,6-dichloro-phenyl)-2-[1,2,3]triazol-2-yl-ethyl ester] |  | N.S | 11.6 |  | 23.6 | responders at 30 mg/kg (mice [4]; 2 h): 100% |
| NC(=O)O[C@@H](Cn1ncnn1)c1ccc(Cl)cc1Cl [Example 103, Carbamic acid (R)-1-(2,4-dichloro-phenyl)-2-tetrazol-2-yl-ethyl ester] | 277.8% ^ | N.S |  |  |  | ED50 (mice [3]; 1 h): 19.2 mg/kg; IC50 [5]: 13.4 µM; ED50 (mice [4]; 1 h): 5.14 mg/kg |
| NC(=O)O[C@H](Cn1ncnn1)c1ccc(Cl)cc1Cl [Example 113, Carbamic acid (S)-1-(2,4-dichloro-phenyl)-2-tetrazol-2-yl-ethyl ester] | −172% ^ | N.S |  |  |  | ED50 (mice [3]; 1 h): 13 mg/kg; ED50 (mice [4]; 1 h): 20.7 mg/kg |
| NC(=O)O[C@H](Cn1nccn1)c1ccc(Cl)cc1Cl [Example 114, Carbamic acid (S)-1-(2,4-dichloro-phenyl)-2-[1,2,3]triazol-2-yl-ethyl ester] | 172.5% ^ | N.S |  |  |  | ED50 (mice [3]; 1 h): 33.9 mg/kg; IC50 [5]: 107 µM; ED50 (mice [4]; 1 h): 16.9 mg/kg |
| NC(=O)O[C@@H](Cn1nccn1)c1ccc(Cl)cc1Cl [Example 115, Carbamic acid (R)-1-(2,4-dichloro-phenyl)-2-[1,2,3]triazol-2-yl-ethyl ester] |  | N.S |  |  |  | Mice LDB % Duration in the light box (mice [1]; 10 mpk, ip): 245%^; ED50 (mice [3]; 0.25 h): 12.7 mg/kg; IC50 [5]: 4.3 µM; ED50 (mice [4]; 1 h): 8.43 mg/kg |
| NC(=O)O[C@@H](Cn1ncnn1)c1c(Cl)cccc1Cl [Example 126, Carbamic acid (R)-1-(2,6-dichloro-phenyl)-2-tetrazol-2-yl-ethyl ester] | 241.5% ^ |  | 2.7 | 72.0 | 0.3 | ED50 (mice [4]; 0.5 h): 5.06 mg/kg |
| NC(=O)NC(=O)OC(Cn1ncnn1)c1ccccc1Cl (centres unmarked) [Example 129, O-1-(2-Chloro-phenyl)-2-tetrazol-2-yl ethyl allophanate] |  | N.S |  |  | 5.6 | Mice MES ED50 (mpk/peak time) (mice [3]; mice, peak time 0.5 hr): 13.7/0.5 hr mpk; Mice PTZ Protection % (mpk/peak time) (mice [4]; 3 mice, 30 mpk, 1 hr): 100% (30/1 hr) |
| NC(=O)O[C@@H](Cn1ccnn1)c1ccc(Cl)cc1Cl [Example 130, Carbamic acid (R)-1-(2,4-dichloro-phenyl)-2-[1,2,3]triazol-1-yl-ethyl ester] |  |  | 24 | 8.8 | 42.8 | Mice LDB % Duration in the light box (mice [1]; [7]): N.S; ED50 (mice [4]; 0.5 h): 8 mg/kg |
| O=C(OC(Cn1ncnn1)c1ccccc1Cl)N1CCC(Cc2ccccc2)CC1 (centres unmarked) [Example 138, 4-Benzyl-piperidine-1-carboxylic acid 1-(2-chloro-phenyl)-2-tetrazol-2-yl-ethyl ester] |  |  |  | 35.9 | 49.6 | responders at 30 mg/kg (mice [3]; 2 h): 100%; responders at 30 mg/kg (mice [4]; 4 h): 66.7% |
| NC(=O)OC(COc1ccc(Cl)c(Cl)c1)Cn1ncnn1 (centres unmarked) [Example 148, Carbamic acid 2-(3,4-dichloro-phenoxy)-1-tetrazol-2-ylmethyl-ethyl ester] |  | N.S |  |  | 76.1 | responders at 30 mg/kg (mice [3]; 0.5 h): 100%; responders at 30 mg/kg (mice [4]; 4 h): 66.7% |

Reference: patent US7598279B2, “Neurotherapeutic azole compounds” (SK Holdings Co., Ltd., priority 2005, dated 2009)
